Assay results published in patent US4785090A, “Cephalosporin derivatives” (Meiji Seika Kaisha, Ltd., priority 1984, dated 1988).
Structures can show the parent of a compound that is named as a salt. Where two headings read alike, the source gives them in different places.

What was measured:
[1] = tested on: Staphylococcus aureus 209PJC1; experiment: Minimum Growth Inhibitory Concentration (MIC), Staphylococcus aureus 209PJC1; format: cell-based
From the text: (§1) Minimum Growth Inhibitory Concentration (MIC) mcg/ml
1. Staphylococcus aureus 209PJC1
as §1
2. Staphylococcus aureus 209 PJC1

Proteus vulgaris GN 76 = experiment: Minimum Growth Inhibitory Concentration (MIC), Proteus vulgaris GN 76; format: cell-based
From the text: as §1
10. Proteus vulgaris GN 76
as §1
8. Proteus vulgaris GN 76

[2] = tested on: Staphylococcus aureus Smith; experiment: Minimum Growth Inhibitory Concentration (MIC), Staphylococcus aureus Smith; format: cell-based; conditions: Staphylococcus aureus, read-out: Minimum Growth Inhibitory Concentration (MIC)
From the text: as §1
1. Staphylococcus aureus Smith

[3] = tested on: Escherichia coli NIHJ JC2; experiment: Minimum Growth Inhibitory Concentration (MIC), Escherichia coli NIHJ JC2; format: cell-based; conditions: Escherichia coli, NIHJJC2, read-out: Minimum Growth Inhibitory Concentration (MIC)
From the text: as §1
3. Escherichia coli NIHJ JC2

Eshcerichia coli GN 206 = experiment: Minimum Growth Inhibitory Concentration (MIC), Escherichia coli GN 206; format: cell-based
From the text: as §1
4. Eshcerichia coli GN 206

[4] = tested on: Klebsiella pneumoniae PCI 602; experiment: Minimum Growth Inhibitory Concentration (MIC), Klebsiella pneumoniae PCI 602; format: cell-based; conditions: Klebsiella pneumoniae, PCI602, read-out: Minimum Growth Inhibitory Concentration (MIC)
From the text: as §1
5. Klebsiella pneumoniae PCI 602

Proteus mirabilis GN 79 = experiment: Minimum Growth Inhibitory Concentration (MIC), Proteus mirabilis GN 79; format: cell-based; conditions: Proteus mirabilis, GN79, read-out: Minimum Growth Inhibitory Concentration (MIC)
From the text: as §1
6. Proteus mirabilis GN 79

[5] = tested on: Salmonella typhimurium LT2; experiment: Minimum Growth Inhibitory Concentration (MIC), Salmonella typhimurium LT2; format: cell-based; conditions: Salmonella enterica, TYPHIMURIUM, read-out: Minimum Growth Inhibitory Concentration (MIC)
From the text: as §1
7. Salmonella typhimurium LT2

Proteus rettgeri GN624 = experiment: Minimum Growth Inhibitory Concentration (MIC), Proteus rettgeri GN624; format: cell-based; conditions: Providencia rettgeri, GN624, read-out: Minimum Growth Inhibitory Concentration (MIC)
From the text: as §1
9. Proteus rettgeri GN624

[6] = tested on: Serratia marcescens No. 2; experiment: Minimum Growth Inhibitory Concentration (MIC), Serratia marcescens No. 2; format: cell-based; conditions: Serratia marcescens, NO.2, read-out: Minimum Growth Inhibitory Concentration (MIC)
From the text: as §1
10. Serratia marcescens No. 2

[7] = Serum concentration in mice after subcutaneous administration; format: in vivo; conditions: mouse, sc, subcutaneous 25 mg/kg; for concentration at 0.5 h: 1/2 hr; for concentration at 0.25 h: 1/4 hr; for concentration at 5 min: 1/12 hr
Description: The experiment was conducted by using 3 mice (average body weight 20 g) in each group, subcutaneously administering 25 mg/kg of the sample, taking blood samples at predetermined intervals, separating the serum and measuring the sample concentration by an antibacterial activity test using Escherichia coli as a testing bactera.

[8] = tested on: Cephalosporinase-producing Escherichia coli GN206; experiment: Treatment of experimental infection in mice (Escherichia coli GN206); format: in vivo; conditions: intraperitoneal infection 1.25×10^6 CFU/mouse, subcutaneous one hour after infection, survival at one week
[9] = Toxicity test in mice (intravenous); format: in vivo; conditions: for LD50 at 168 h: mouse, in vivo
From the text: Further, the compound of Example 28 was intravenously adminstered to 3 mice at a dose of 1 g/kg and also the compounds of Examples 34 and 51 were similarly administered at a dose of 3 g/kg respectively, and the number of survivor was examined after a week.

Bacillus subtilis = experiment: Minimum Growth Inhibitory Concentration (MIC), Bacillus subtilis; format: cell-based; conditions: Table 1, bacterium 2: Bacillus subtilis
From the text: as §1

Escherichia coli RGN 823 = experiment: Minimum Growth Inhibitory Concentration (MIC), Escherichia coli RGN 823; format: cell-based; conditions: RGN823; Table 1, bacterium 3: Escherichia coli RGN 823
From the text: as §1
3. Escherichia coli RGN 823

[10] = tested on: Klebsiella pneumoniae GN 69; experiment: Minimum Growth Inhibitory Concentration (MIC), Klebsiella pneumoniae GN 69; format: cell-based; conditions: GN69; Table 1, bacterium 4: Klebsiella pneumoniae GN 69
From the text: as §1
4. Klebsiella pneumoniae GN 69

Serratia marcescens N 01 = experiment: Minimum Growth Inhibitory Concentration (MIC), Serratia marcescens N 01; format: cell-based; conditions: N01; Table 1, bacterium 7: Serratia marcescens N 01
From the text: as §1
7. Serratia marcescens N 01

[11] = tested on: Pseudomonas aeruginosa MB 3833; experiment: Minimum Growth Inhibitory Concentration (MIC), Pseudomonas aeruginosa MB 3833; format: cell-based; conditions: MB3833; Table 1, bacterium 8: Pseudomonas aeruginosa MB 3833
From the text: as §1
8. Pseudomonas aeruginosa MB 3833

[12] = tested on: Streptococcus faecalis ATCC 8043; experiment: Minimum Growth Inhibitory Concentration (MIC), Streptococcus faecalis ATCC 8043; format: cell-based; conditions: Enterococcus faecalis, ATCC8043; Table 1, bacterium 9: Streptococcus faecalis ATCC 8043
From the text: as §1
9. Streptococcus faecalis ATCC 8043

[13] = tested on: Enterobacter cloacae G0005; experiment: Minimum Growth Inhibitory Concentration (MIC), Enterobacter cloacae G0005; format: cell-based; conditions: Table 1, bacterium 11: Enterobacter cloacae G0005
From the text: as §1
11. Enterobacter cloacae G0005

[14] = Table 1, bacterium 1: Staphylococcus aureus 209PJC1, read-out: Minimum Growth Inhibitory Concentration (MIC)
[15] = GN76, Table 1, bacterium 10: Proteus vulgaris GN 76, read-out: Minimum Growth Inhibitory Concentration (MIC)

Row | Compound | concentration at 0.5 h [7] | concentration at 0.25 h [7] | concentration at 5 min [7] | concentration at 1 h [7] | ED50 [8] | MIC [1, 14] | MIC (Bacillus subtilis) | MIC (Escherichia coli RGN 823) | MIC [10] | MIC (Serratia marcescens N 01) | MIC [11] | MIC [12] | MIC (Proteus vulgaris GN 76; [15]) | MIC [13] | LD50 at 168 h ([9]; iv) | also measured
1 | CCO/N=C(\C(=O)N[C@@H]1C(=O)N2C(C(=O)O)=C(CSc3cc[n+](CC(=O)O)cc3)CS[C@H]12)c1csc(N)n1.[Na+] | 28500 ng/mL | 31000 ng/mL | 26000 ng/mL | 4000 ng/mL | 0.065 mg/mouse | – | – | – | – | – | – | – | – | – | – | MIC ([1]; Staphylococcus aureus, 209PJC1, read-out: Minimum Growth Inhibitory Concentration (MIC)): 0.39 µg/mL; MIC (Proteus vulgaris GN 76; Proteus vulgaris, GN76, read-out: Minimum Growth Inhibitory Concentration (MIC)): 0.1 µg/mL; MIC [2]: 0.78 µg/mL; MIC [3]: 0.78 µg/mL; MIC (Eshcerichia coli GN 206; GN206, read-out: Minimum Growth Inhibitory Concentration (MIC)): 0.39 µg/mL; MIC (Eshcerichia coli GN 206; GN206, read-out: minimum growth inhibitory concentration (MIC)): 0.39 µg/mL; MIC [4]: 0.05 µg/mL; MIC (Proteus mirabilis GN 79): 0.39 µg/mL; MIC [5]: 0.1 µg/mL; MIC (Proteus rettgeri GN624): 1.56 µg/mL; MIC [6]: 0.2 µg/mL; survival after a week ([9]; mice, intravenous, 1 g/kg): all the mice survived; LD50 at 168 h ([9]; mice, intravenous, survivors after a week): ≥ 1000 mg/kg
2 | CO/N=C(\C(=O)N[C@@H]1C(=O)N2C(C(=O)[O-])=C(CSc3cc[n+](CC(=O)O)c4c3CCC4)CS[C@H]12)c1csc(N)n1 [Example 34, (6R,7R)-7-[(Z)-2-(2-Aminothiazol-4-yl)-2-methoxyiminoacetamido]-3-[(2,3-cyclopenteno-1-carboxymethylpyridinium-4-yl)thiomethyl]-ceph-3-em-4-carboxylicacid sodium salt] | 21000 ng/mL | 35000 ng/mL | 25000 ng/mL | 6400 ng/mL | 0.3 mg/mouse | 0.78 µg/mL | 1.56 µg/mL | ≤ 0.025 µg/mL | ≤ 0.025 µg/mL | 0.05 µg/mL | 6.25 µg/mL | 6.25 µg/mL | 0.1 µg/mL | 0.2 µg/mL | ≥ 3000 mg/kg | –
3 | CO/N=C(\C(=O)N[C@@H]1C(=O)N2C(C(=O)[O-])=C(CSc3cc[n+](CCS(=O)(=O)O)c4c3CCC4)CS[C@H]12)c1csc(N)n1 [Example 39, (6R,7R)-7-[(Z)-2-(2-Aminothiazol-4-yl)-2-methoxyiminoacetamido]-3-[[2,3-cyclopenteno-1-(2-sulfoethyl)pyridinium-4-yl]thiomethyl]-ceph-3-em-4-carboxylic acid sodium salt] | – | – | – | – | – | 0.78 µg/mL | 1.56 µg/mL | ≤ 0.025 µg/mL | ≤ 0.025 µg/mL | ≤ 0.025 µg/mL | 12.5 µg/mL | 6.25 µg/mL | 0.2 µg/mL | 0.1 µg/mL | – | –
4 | C[n+]1ccc(SCC2=C(C(=O)[O-])N3C(=O)[C@@H](NC(=O)/C(=N\OCC(=O)O)c4csc(N)n4)[C@H]3SC2)c2c1CCC2 [Example 51, (6R,7R)-7-[(Z)-2-(2-Aminothiazol-4-yl)-2-(carboxymethoxyimino)acetamido]-3-[(2,3-cyclopenteno-1-methylpyridinium-4-yl)thiomethyl]-ceph-3-em-4-carboxylic acid sodium salt] | 24000 ng/mL | 34000 ng/mL | 27000 ng/mL | 5400 ng/mL | 0.37 mg/mouse | 1.56 µg/mL | 0.05 µg/mL | 0.1 µg/mL | ≤ 0.025 µg/mL | ≤ 0.025 µg/mL | 6.25 µg/mL | 1.56 µg/mL | ≤ 0.025 µg/mL | 0.05 µg/mL | ≥ 3000 mg/kg | –
